pEC50: −log10 of the molar value.

Consider four compounds from patent US20230106880A1, “INHIBITORS OF HUMAN IMMUNODEFICIENCY VIRUS REPLICATION” (VIIV HEALTHCARE UK (NO.5) LIMITED, priority 2020, published 2023).

In data set [1] the test system is recombinant NL4-3 virus (Renilla luciferase) in MT-2 cells. In words: HIV cell culture assay (antiviral, luciferase readout in infected MT-2 cells). The class given is cell-based. The note with it: NL43. The protocol:
HIV cell culture assay—MT-2 cells, 293T cells and the proviral DNA clone of NL4-3 virus were obtained from the NIH AIDS Research and Reference Reagent Program. MT-2 cells were propagated in RPMI 1640 media supplemented with 10% heat inactivated fetal bovine serum (FBS), […]. The 293T cells were propagated in DMEM media supplemented with 10% heat inactivated FBS, […]. A recombinant NL4-3 proviral clone, in which a section of the nef gene was replaced with the Renilla luciferase gene, was used to make the reference virus used in these studies. The recombinant virus was prepared through transfection of the recombinant NL4-3 proviral clone into 293T cells using Transit-293 Transfection Reagent from Mirus Bio LLC (Madison, Wis.). Supernatent was harvested after 2-3 days and the amount of virus present was titered in MT-2 cells using luciferase enzyme activity as a marker by measuring luciferase enzyme activity. Luciferase was quantitated using the EnduRen Live Cell Substrate from Promega (Madison, Wis.). Antiviral activities of compounds toward the recombinant virus were quantified by measuring luciferase activity in MT-2 cells infected for 4-5 days with the recombinant virus in the presence of serial dilutions of the compound.
The 50% effective concentration (EC50) was calculated by using the exponential form of the median effect equation where (Fa)=1/[1+(ED50/drug conc.)m] (Johnson V A, Byington R T. Infectivity Assay. In Techniques in HIV Research. ed. Aldovini A, Walker B D. 71-76. New York: Stockton Press. 1990). The 50% inhibitory concentration (EC50) was calculated by using the exponential form of the median effect equation where percent inhibition=1/[1+(EC50/drug concentration)m], where m is a parameter that reflects the slope of the concentration-response curve.

A short description of data set [2]: Compound cytotoxicity, XTT-based colorimetric assay in uninfected MT2 cells. The settings on record: human, day 4, XTT assay. The data set is classed as cell-based. On the procedure:
Compound cytotoxicity and the corresponding CC50 values were determined using the same protocol as described in the antiviral assay except that uninfected cells were used. Cytotoxicity was assessed on day 4 in uninfected MT2 cells by using an XTT (2,3-bis[2-Methoxy-4-nitro-5-sulfophenyl]-2H-tetrazolium-5-carboxyanilide inner salt)-based colorimetric assay (Sigma-Aldrich, St Louis, Mo.).

As for `Cn1nc(NS(C)(=O)=O)c2c(Cl)ccc(-n3c([C@H](Cc4cc(F)cc(F)c4)NC(=O)Cn4nc(C5CC5)c5c4C(F)(F)[C@@H]4C[C@H]54)nc4nc(OCCC(C)(F)F)ccc4c3=O)c21` (atropisomer, axis not shown; (P)) [Example 1, N—((S)-1-((3P)-3-(4-chloro-1-methyl-3-(methylsulfonamido)-1H-indazol-7-yl)-7-(3,3-difluorobutoxy)-4-oxo-3,4-dihydropyrido[2,3-d]pyrimidin-2-yl)-2-(3,5-difluorophenyl)ethyl)-2-((3bS,4aR)-3-cyclopropyl-5,5-difluoro-3b,4,4a,5-tetrahydro-1H-cyclopropa[3,4]cyclopenta[1,2-c]pyrazol-1-yl)acetamide], in data set [1], the pEC50 is 10.57. Moreover, the cytotoxic concentration (CC50) at 4 day in data set [2] is more than 100 nM.

With `Cn1nc(NS(C)(=O)=O)c2c(Cl)ccc(-n3c([C@H](Cc4cc(F)cc(F)c4)NC(=O)Cn4nc(C5CC5)c5c4C(F)(F)[C@H]4C[C@@H]54)nc4nc(OCCC(C)(F)F)ccc4c3=O)c21` (atropisomer, axis not shown; (P)) [Example 2, N—((S)-1-((3P)-3-(4-chloro-1-methyl-3-(methylsulfonamido)-1H-indazol-7-yl)-7-(3,3-difluorobutoxy)-4-oxo-3,4-dihydropyrido[2,3-d]pyrimidin-2-yl)-2-(3,5-difluorophenyl)ethyl)-2-((3bR,4aS)-3-cyclopropyl-5,5-difluoro-3b,4,4a,5-tetrahydro-1H-cyclopropa[3,4]cyclopenta[1,2-c]pyrazol-1-yl)acetamide], the pEC50 in data set [1] was 10.30. In data set [2], this compound yielded a CC50 at 4 day of more than 100 nM.

With `Cn1nc(NS(C)(=O)=O)c2c(Cl)ccc(-n3c([C@H](Cc4cc(F)cc(F)c4)NC(=O)Cn4nc(C5CC5)c5c4C(F)(F)[C@@H]4C[C@H]54)nc4nc(OCCC(F)(F)F)ccc4c3=O)c21` (atropisomer, axis not shown; (P)) [Example 3, N—((S)-1-((3P)-3-(4-chloro-1-methyl-3-(methylsulfonamido)-1H-indazol-7-yl)-4-oxo-7-(3,3,3-trifluoropropoxy)-3,4-dihydropyrido[2,3-d]pyrimidin-2-yl)-2-(3,5-difluorophenyl)ethyl)-2-((3bS,4aR)-3-cyclopropyl-5,5-difluoro-3b,4,4a,5-tetrahydro-1H-cyclopropa[3,4]cyclopenta[1,2-c]pyrazol-1-yl)acetamide], the pEC50 in data set [1] is 10.85. In data set [2], the half-maximal cytotoxic concentration (CC50) at 4 day was more than 100 nM.

Consider `Cn1nc(NS(C)(=O)=O)c2c(Cl)ccc(-n3c([C@H](Cc4cc(F)cc(F)c4)NC(=O)Cn4nc(C5CC5)c5c4C(F)(F)[C@H]4C[C@@H]54)nc4nc(OCCC(F)(F)F)ccc4c3=O)c21` (atropisomer, axis not shown; (P)) [Example 4, N—((S)-1-((3P)-3-(4-chloro-1-methyl-3-(methylsulfonamido)-1H-indazol-7-yl)-4-oxo-7-(3,3,3-trifluoropropoxy)-3,4-dihydropyrido[2,3-d]pyrimidin-2-yl)-2-(3,5-difluorophenyl)ethyl)-2-((3bR,4aS)-3-cyclopropyl-5,5-difluoro-3b,4,4a,5-tetrahydro-1H-cyclopropa[3,4]cyclopenta[1,2-c]pyrazol-1-yl)acetamide], for which the pEC50 in data set [1] was 10.10. Further, the CC50 at 4 day in data set [2] is more than 100 nM.
